In the test the test system is P388. Briefly: Cytotoxicity against mouse P388 cells. Format: functional. As to conditions: read-out: ED50 (the source's name).

The results in this text go back to ChEMBL document CHEMBL1158922, “Antineoplastic agents, 177. Isolation and structure of phyllanthostatin 6” (1990).

≈ marks a conversion by molar mass, not a printed value.

`CC1CO[C@]2(CC1OC(=O)/C=C/c1ccccc1)OC1CC(C(=O)O[C@@H]3O[C@H](CO)[C@@H](O)[C@H](O)[C@H]3O[C@@H]3O[C@H](C)[C@@H](O)[C@H](O)[C@H]3O)CCC1[C@]21CO1` (stereo partly specified) [PHYLLANTHOSTATIN 6]: the EC50 was 0.35 µg/mL (≈ 0.475 µM).
